According to ChEMBL document CHEMBL4130359, “Indazole-based ligands for estrogen-related receptor α as potential anti-diabetic agents” (Eur J Med Chem, 2017):

How the values were obtained:
Rattus norvegicus [1] = assay: Decrease in fed plasma triglyceride level in Zucker rat sub-chronic fa/fa prediabetic model assessed as change in plasma triglyceride level at 10 mg/kg, po qd for 4 days measured on day 5 relative to control; type: functional; design: scale not given: the % may be the effect or the level left
[2] = biological target: Retinoic acid receptor RXR-alpha (Homo sapiens, UniProt P19793); assay: Agonist activity at recombinant GST-tagged human RXRalpha LBD assessed as fluorescein-labeled coactivator peptide recruitment preincubated with enzyme followed by coactivator addition by LanthaScreen TR-FRET assay
Sequence of Retinoic acid receptor RXR-alpha (P19793 whole entry, the tested form may be a part): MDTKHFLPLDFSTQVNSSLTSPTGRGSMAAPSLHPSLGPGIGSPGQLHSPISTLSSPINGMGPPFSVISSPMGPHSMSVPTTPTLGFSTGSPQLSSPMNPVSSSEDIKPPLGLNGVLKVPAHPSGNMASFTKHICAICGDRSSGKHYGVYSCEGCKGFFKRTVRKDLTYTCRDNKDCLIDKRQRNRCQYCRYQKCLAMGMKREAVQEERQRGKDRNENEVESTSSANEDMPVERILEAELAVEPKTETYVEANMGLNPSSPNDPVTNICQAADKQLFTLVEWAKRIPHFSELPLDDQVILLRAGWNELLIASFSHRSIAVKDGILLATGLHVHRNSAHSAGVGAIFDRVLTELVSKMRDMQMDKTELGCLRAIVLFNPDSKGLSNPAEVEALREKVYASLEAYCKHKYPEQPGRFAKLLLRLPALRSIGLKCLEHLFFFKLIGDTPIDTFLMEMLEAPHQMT

[3] = biological target: Peroxisome proliferator-activated receptor alpha (Homo sapiens, UniProt Q07869); assay: Antagonist activity at recombinant GST-tagged human PPARalpha LBD assessed as inhibition of GW7647-induced fluorescein-labeled coactivator peptide recruitment preincubated with enzyme followed by coactivator addition by LanthaScreen TR-FRET assay
Sequence of Peroxisome proliferator-activated receptor alpha (Q07869 whole entry, the tested form may be a part): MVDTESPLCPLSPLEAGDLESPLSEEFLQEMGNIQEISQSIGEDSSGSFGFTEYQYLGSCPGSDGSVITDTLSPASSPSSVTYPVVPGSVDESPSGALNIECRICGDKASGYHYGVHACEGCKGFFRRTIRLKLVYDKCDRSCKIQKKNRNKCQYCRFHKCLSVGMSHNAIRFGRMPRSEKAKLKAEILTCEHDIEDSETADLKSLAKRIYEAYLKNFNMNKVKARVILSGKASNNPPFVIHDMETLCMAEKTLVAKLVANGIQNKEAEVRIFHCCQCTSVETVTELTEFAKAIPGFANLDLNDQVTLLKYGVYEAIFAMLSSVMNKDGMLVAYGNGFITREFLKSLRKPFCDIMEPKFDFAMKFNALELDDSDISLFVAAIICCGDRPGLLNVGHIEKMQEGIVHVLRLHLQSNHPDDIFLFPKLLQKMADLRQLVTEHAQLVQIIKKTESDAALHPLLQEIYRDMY

[4] = Clearance in CD-1 mouse at 5 mg/kg, iv by LC-MS analysis; type: ADME, organism-based; details: in vivo
[5] = Clearance in Sprague-Dawley rat at 2 mg/kg, iv by LC-MS analysis; type: ADME, organism-based; details: in vivo
[6] = Cmax in Zucker rat sub-chronic fa/fa prediabetic model at 10 mg/kg, po qd for 26 days measured on day 26 post last dose; type: ADME, organism-based; design: dose 10 mg/kg, route oral; details: in vivo
[7] = AUC (0 to 24 hrs) in Zucker rat sub-chronic fa/fa prediabetic model at 1 mg/kg, po qd for 26 days measured on day 26 post last dose; type: ADME, organism-based; design: time < 24 hr, dose 1 mg/kg, route oral; details: in vivo
Rattus norvegicus [8] = assay: Toxicity in Zucker rat sub-chronic fa/fa prediabetic model assessed as food intake at 50 mg/kg, po qd for 29 days measured on day 1 to 29 during compound dosing (reference value: 969 +/- 18 g); type: organism-based; details: in vivo, 696 h
Rattus norvegicus [9] = assay: Toxicity in Zucker rat sub-chronic fa/fa prediabetic model assessed as epididymal white adipose tissue weight at 10 mg/kg, po qd for 31 days measured on day 32 (reference value: 13.9 +/- 0.6 g); type: organism-based; details: in vivo, 744 h
Rattus norvegicus [10] = assay: Toxicity in Zucker rat sub-chronic fa/fa prediabetic model assessed as brown adipose tissue weight at 3 mg/kg, po qd for 31 days measured on day 32 (reference value: 2.1 +/- 0.3 g); type: organism-based; details: in vivo, 744 h
Rattus norvegicus [11] = assay: Toxicity in Zucker rat sub-chronic fa/fa prediabetic model assessed as triglyceride level per gram liver at 10 mg/kg, po qd for 31 days measured on day 32 (reference value: 163.4 +/- 8.3 mg); type: organism-based; details: in vivo, 744 h
Rattus norvegicus [12] = assay: Toxicity in Zucker rat sub-chronic fa/fa prediabetic model assessed as serum triglyceride level at 1 mg/kg, po qd for 31 days measured on day 32 (reference value: 1382 +/- 268 mg/dl); type: organism-based; details: in vivo, 744 h
Rattus norvegicus [13] = assay: Toxicity in Zucker rat sub-chronic fa/fa prediabetic model assessed as serum triglyceride level at 3 mg/kg, po qd for 31 days measured on day 32 (reference value: 1382 +/- 268 mg/dl); type: organism-based; details: in vivo, 744 h
Rattus norvegicus [14] = assay: Toxicity in Zucker rat sub-chronic fa/fa prediabetic model assessed as serum creatinine level at 50 mg/kg, po qd for 31 days measured on day 32 (reference value: 0.71 +/- 0.07 mg/dl); type: organism-based; details: in vivo, 744 h
Rattus norvegicus [15] = type: functional, Zucker
Rattus norvegicus [16] = assay: Toxicity in […] chronic ob/ob model assessed as body weight at 50 mg/kg, po qd for 28 days measured on day 28 post last dose (reference value: 47.3 +/- 1.06 g); type: organism-based; details: in vivo, 672 h
Rattus norvegicus [17] = assay: Toxicity in […] model assessed as liver weight at 10 mg/kg, po qd for 31 days measured on day 32 (reference value: 2.77 +/- 0.16 g); type: organism-based; details: in vivo, 744 h
Rattus norvegicus [18] = assay: Toxicity in […] model assessed as liver weight at 50 mg/kg, po qd for 31 days measured on day 32 (reference value: 2.77 +/- 0.16 g); type: organism-based; details: in vivo, 744 h
Rattus norvegicus [19] = assay: Toxicity in […] chronic ob/ob model assessed as brown adipose tissue weight at 50 mg/kg, po qd for 31 days measured on day 32 (reference value: 0.59 +/- 0.05 g); type: organism-based; details: in vivo, 744 h
Rattus norvegicus [20] = assay: Toxicity in […] chronic ob/ob model assessed as serum triglyceride level at 10 mg/kg, po qd for 31 days measured on day 32 (reference value: 329 +/- 36 mg/dl); type: organism-based; details: in vivo, 744 h
Rattus norvegicus [21] = assay: Toxicity in […] chronic ob/ob model assessed as serum triglyceride level at 50 mg/kg, po qd for 31 days measured on day 32 (reference value: 329 +/- 36 mg/dl); type: organism-based; details: in vivo, 744 h
Rattus norvegicus [22] = assay: Toxicity in […] model assessed as serum cholesterol level at 50 mg/kg, po qd for 31 days measured on day 32 (reference value: 195 +/- 5.5 mg/dl); type: organism-based; details: in vivo, 744 h
Rattus norvegicus [23] = assay: Effect on NDUFB10 gene expression in epididymal white adipose tissue of Zucker rat sub-chronic fa/fa prediabetic model at 10 mg/kg, po qd for 15 days by microarray analysis relative to control; type: functional
Rattus norvegicus [24] = assay: Effect on NDUFB9 gene expression in epididymal white adipose tissue of Zucker rat sub-chronic fa/fa prediabetic model at 10 mg/kg, po qd for 15 days by microarray analysis relative to control; type: functional
Rattus norvegicus [25] = assay: Effect on ECHS1 gene expression in epididymal white adipose tissue of Zucker rat sub-chronic fa/fa prediabetic model at 10 mg/kg, po qd for 15 days by microarray analysis relative to control; type: functional
Rattus norvegicus [26] = assay: Effect on PIK3CD gene expression in epididymal white adipose tissue of Zucker rat sub-chronic fa/fa prediabetic model at 10 mg/kg, po qd for 15 days by microarray analysis relative to control; type: functional
Rattus norvegicus [27] = assay: Effect on DBT gene expression in epididymal white adipose tissue of Zucker rat sub-chronic fa/fa prediabetic model at 10 mg/kg, po qd for 15 days by microarray analysis relative to control; type: functional
Rattus norvegicus [28] = assay: Effect on RRAS2 gene expression in epididymal white adipose tissue of Zucker rat sub-chronic fa/fa prediabetic model at 10 mg/kg, po qd for 15 days by microarray analysis relative to control; type: functional
Rattus norvegicus [29] = assay: Effect on ECSIT gene expression in epididymal white adipose tissue of Zucker rat sub-chronic fa/fa prediabetic model at 10 mg/kg, po qd for 15 days by microarray analysis relative to control; type: functional
Rattus norvegicus [30] = assay: Effect on GHR gene expression in epididymal white adipose tissue of Zucker rat sub-chronic fa/fa prediabetic model at 10 mg/kg, po qd for 15 days by microarray analysis relative to control; type: functional
Rattus norvegicus [31] = assay: Effect on CD3D gene expression in epididymal white adipose tissue of Zucker rat sub-chronic fa/fa prediabetic model at 10 mg/kg, po qd for 15 days by microarray analysis relative to control; type: functional
Rattus norvegicus [32] = assay: Effect on HLA-DMB gene expression in epididymal white adipose tissue of Zucker rat sub-chronic fa/fa prediabetic model at 10 mg/kg, po qd for 15 days by microarray analysis relative to control; type: functional
Rattus norvegicus [33] = assay: Effect on HLA-DRB1 gene expression in epididymal white adipose tissue of Zucker rat sub-chronic fa/fa prediabetic model at 10 mg/kg, po qd for 15 days by microarray analysis relative to control; type: functional

CN1CC[C@@H](N2C(=O)S/C(=C\c3ccc4c(cnn4Cc4ccc(Cl)cc4C(F)(F)F)c3)C2=O)[C@H](F)C1
Activity (Rattus norvegicus [1]): -68% | EC50 [2]: > 10 µM | IC50 [3]: > 10 µM | clearance [4]: 10 mL/min/kg | clearance [5]: 23 mL/min/kg | Cmax [6]: 2900 ng/mL | AUC at 24 h [7]: 3200 ng·h/mL | Activity (Rattus norvegicus [8]): 1049 g | Activity (Rattus norvegicus [9]): 19.1 g | Activity (Rattus norvegicus [10]): 4.4 g | Activity (Rattus norvegicus [11]): 93 mg | Activity (Rattus norvegicus [12]): 1040 mg/dL | Activity (Rattus norvegicus [13]): 584 mg/dL | Activity (Rattus norvegicus [14]): 0.54 mg/dL | Activity (Rattus norvegicus [15]): 56958 mg·min/dL | Activity (Rattus norvegicus [16]): 46.8 g | Activity (Rattus norvegicus [17]): 2.67 g | Activity (Rattus norvegicus [18]): 2.61 g | Activity (Rattus norvegicus [19]): 1.31 g | Activity (Rattus norvegicus [20]): 138 mg/dL | Activity (Rattus norvegicus [21]): 81 mg/dL | Activity (Rattus norvegicus [22]): 145 mg/dL | fold change (FC) (Rattus norvegicus [23]): 1.237 | fold change (FC) (Rattus norvegicus [24]): 1.214 | fold change (FC) (Rattus norvegicus [25]): 1.35 | fold change (FC) (Rattus norvegicus [26]): -1.312 | fold change (FC) (Rattus norvegicus [27]): -1.217 | fold change (FC) (Rattus norvegicus [28]): 1.235 | fold change (FC) (Rattus norvegicus [29]): 1.339 | fold change (FC) (Rattus norvegicus [30]): 1.276 | fold change (FC) (Rattus norvegicus [31]): -1.256 | fold change (FC) (Rattus norvegicus [32]): -1.288 | fold change (FC) (Rattus norvegicus [33]): -1.334
